Drawing on ChEMBL document CHEMBL4814051, “Discovery of effective phosphodiesterase 2 inhibitors with antioxidant activities for the treatment of Alzheimer's disease” (Bioorg Med Chem Lett, 2021), this text covers Activity (Trolox equivalents) and viability for 17 compounds.

Structures are written as SMILES.

The nature of data set [1]: Antioxidant activity assessed as trolox equivalent of AAPH-induced radical scavenging activity preincubated for 15 mins followed by AAPH addition and measured every minute for 80 mins by ORAC-FL assay. In kind it is functional. The settings on record: time 95.0 min.
Data set [2] can be described thus: Cytotoxicity against human SH-SY5Y cells assessed as cell viability at 50 uM incubated for 48 hrs by CCK-8 method. In kind it is cell-based. The settings on record: read-out: Activity. (In general: Tetrazolium dyes change colour on reduction, which living cells bring about.)
Data set [3] can be described thus: Cytotoxicity against human SH-SY5Y cells assessed as cell viability at 100 uM incubated for 48 hrs by CCK-8 method. The settings on record: read-out: Activity. In kind it is cell-based.

Turning to `COc1ccc2[nH]cc(CCNC(C)=O)c2c1`, in data set [1], the Activity (Trolox equivalents) amounted to 2.

Consider `Cc1nc2ccc(NCc3c(O)cccc3F)cc2n2c(-c3ccccc3Cl)nnc12`, for which the Activity (Trolox equivalents) in data set [1] amounted to 8.6. In addition, in data set [2], the viability at 48 h, 50 µM came to 23%. Besides, the viability at 48 h, 100 µM in data set [3] worked out at 10%. On to `Cc1nc2ccc(/N=C/c3ccc(F)cc3O)cc2n2c(-c3ccccc3Cl)nnc12`, for which the Activity (Trolox equivalents) in data set [1] was determined as 0.2. The same measure, in the same setting: with `Cc1nc2ccc(NCc3cc(Cl)cc(Cl)c3O)cc2n2c(-c3ccccc3Cl)nnc12` the figure was 6.8.

Take `COc1ccc(O)c(CNc2ccc3nc(C)c4nnc(-c5ccccc5Cl)n4c3c2)c1`: the Activity (Trolox equivalents) in data set [1] came to 8. Same read-out and setting: with `Cc1nc2ccc(NCc3ccccc3O)cc2n2c(-c3ccccc3Cl)nnc12` the figure was 3.7; with `Cc1nc2ccc(NCc3ccccc3F)cc2n2c(-c3ccccc3Cl)nnc12`, 0.6; with `Cc1nc2ccc(NCc3ccc(Cl)cc3O)cc2n2c(-c3ccccc3Cl)nnc12`, 6.9. Same read-out and setting: with `Cc1nc2ccc(NCc3cc(Cl)ccc3O)cc2n2c(-c3ccccc3Cl)nnc12` the figure was 3.9. As to `Cc1nc2ccc(NCc3cc(F)ccc3O)cc2n2c(-c3ccccc3Cl)nnc12`, in data set [1], the Activity (Trolox equivalents) worked out at 8.1.

Regarding `Cc1nc2ccc(NCc3cc(OC(F)(F)F)ccc3O)cc2n2c(-c3ccccc3Cl)nnc12`, the Activity (Trolox equivalents) in data set [1] came out at 5.2.

Turning to `Cc1nc2ccc(NCc3ccc(F)cc3O)cc2n2c(-c3ccccc3Cl)nnc12`, the Activity (Trolox equivalents) in data set [1] was 8.4. Further, the viability at 48 h, 50 µM in data set [2] came out at 53%. In addition, the viability at 48 h, 100 µM in data set [3] stood at 39%. `Cc1nc2ccc(NCc3cc(Br)ccc3O)cc2n2c(-c3ccccc3Cl)nnc12`: the Activity (Trolox equivalents) in data set [1] amounted to 2.6. `Cc1nc2ccc(NCc3ccc(Cl)cn3)cc2n2c(-c3ccccc3Cl)nnc12`: the Activity (Trolox equivalents) in data set [1] stood at 1.9. Same read-out and setting: with `Cc1nc2ccc(/N=C/c3ccccc3O)cc2n2c(-c3ccccc3Cl)nnc12` the figure was 0.3; with `Cc1nc2ccc(NCc3ccc(F)cc3)cc2n2c(-c3ccccc3Cl)nnc12`, 0.2.

In the case of `Cc1nc2ccc(NCc3ccccn3)cc2n2c(-c3ccccc3Cl)nnc12`, the Activity (Trolox equivalents) in data set [1] amounted to 5.5.
